In patent US12364713B2, “Coagulation mold, a kit and a method for preparing a coagulated blood mass” (Reddress Ltd., priority 2022, dated 2025):
Values joined by “and” are separate entries in the source; they are usually repeats but may differ in a detail not shown here. Equal entries are not always repeated.

System: whole blood
Assay: Calcium Gluconate (CG) Powder Test: coagulation of whole blood with varying CG amounts
Experimental: A standard amount of ACD-A anticoagulant and Kaoiln powder per 1 ml of whole blood was used • 2 ml of ACD-A for 15 ml blood=0.133 ml ACD-A/1 ml blood • 28 mg Kaolin powder for 15 ml blood=1.87 mg Kaolin/1 ml blood
Different amounts of CG where tested-CG particle size after sifting is 125 micron • 20 mg for 15 ml of blood=1.33 mgCG/1 ml blood • 50 mg for 15 ml of blood=3.33 mgCG/1 ml blood • 85 mg for 15 ml of blood=5.66 mgCG/1 ml blood • 110 mg for 15 ml of blood=7.33 mgCG/1 ml blood • 140 mg for 15 ml of blood=9.33 mgCG/1 ml blood
Coagulation time and clot structure strength were documented. Blood samples of 5 different volunteers were used.

[1] = 20 mg CG for 15 ml blood, Average of 5 volunteers
[2] = 50 mg CG for 15 ml blood, Average of 5 volunteers
[3] = 85 mg CG for 15 ml blood, Average of 5 volunteers
[4] = 110 mg CG for 15 ml blood, Average of 5 volunteers
[5] = 140 mg CG for 15 ml blood, Average of 5 volunteers

Calcium Gluconate [CG]
Coagulation time (20 mg CG for 15 ml blood, 2 ml ACD-A, 28 mg Kaolin, individual volunteers #1-#5, good time is under 6 minutes): 17 and 14 and 12 and 14.5 and 15 | Clot strength [1]: Low | Coagulation time [1]: 14.5 | Clot strength (20 mg CG for 15 ml blood, individual volunteers, visual): Low | Coagulation time (50 mg CG for 15 ml blood, 2 ml ACD-A, 28 mg Kaolin, individual volunteers #1-#5, good time is under 6 minutes): 6.7 and 5.4 and 6 and 6.6 and 6.8 | Clot strength [2]: Medium | Coagulation time [2]: 6.3 | Clot strength (50 mg CG for 15 ml blood, individual volunteers, visual): Medium | Coagulation time (85 mg CG for 15 ml blood, 2 ml ACD-A, 28 mg Kaolin, individual volunteers #1-#5, good time is under 6 minutes): 4.8 (2×) and 4.6 (2×) and 4.7 | Clot strength [3]: Strong | Coagulation time [3]: 4.88 | Clot strength (85 mg CG for 15 ml blood, individual volunteers, visual): Strong | Coagulation time (110 mg CG for 15 ml blood, 2 ml ACD-A, 28 mg Kaolin, individual volunteers #1-#5, good time is under 6 minutes): 4.7 and 5.2 and 4.6 and 4.9 and 5 | Clot strength [4]: Strong | Coagulation time [4]: 4.7 | Clot strength (110 mg CG for 15 ml blood, individual volunteers, visual): Strong | Coagulation time (140 mg CG for 15 ml blood, 2 ml ACD-A, 28 mg Kaolin, individual volunteers #1-#5, good time is under 6 minutes): 4.8 and 4.7 and 5 and 5.2 and 4.9 | Clot strength [5]: Strong | Coagulation time [5]: 4.92 | Clot strength (140 mg CG for 15 ml blood, individual volunteers, visual): Strong
